We go through four compounds from publication PMC10405867 (Journal of Enzyme Inhibition and Medicinal Chemistry, 2023).

For the experiment, the target named is SARS-CoV-2 Mpro (Severe acute respiratory syndrome coronavirus 2, UniProt P0DTD1). Description: biochemical. The format is biochemical.

What is called IC50 is the point on the concentration scale where inhibition reaches its midpoint. A lower IC50 goes with greater potency. On to `COc1ccc2c(c1)C(=O)C(=O)N2Cc1cn(CC(=O)Nc2ccc(C(C)=O)cc2)nn1` [10b, N-(4-Acetylphenyl)-2–(4-((5-methoxy-2,3-dioxoindolin-1-yl)methyl)-1H-1,2,3-triazol-1-yl)acetamide], for which the midpoint of inhibition, the IC50, lay at 17.1 ± 0.815 µM.

Consider `NS(=O)(=O)c1ccc(NC(=O)Cn2cc(CN3C(=O)C(=O)c4cc(OC(F)(F)F)ccc43)nn2)cc1` [6d, 2–(4-((2,3-Dioxo-5-(trifluoromethoxy)indolin-1-yl)methyl)-1H-1,2,3-triazol-1-yl)-N-(4-sulfamoylphenyl)acetamide], for which the 50% inhibitory concentration (IC50) came to 1.05 ± 0.053 µM and the “fold decreased 3CL-Pro inhibitory activity than unsubstituted counterpart 6a” value was “about 2 fold”.

`NS(=O)(=O)c1ccc(NC(=O)Cn2cc(CN3C(=O)C(=O)c4ccccc43)nn2)cc1` [6a, 2–(4-((2,3-Dioxoindolin-1-yl)methyl)-1H-1,2,3-triazol-1-yl)-N-(4-sulfamoylphenyl)acetamide]: the IC50 came to 0.562 ± 0.005 µM.

The compound `CC(=O)c1ccc(NC(=O)Cn2cc(CN3C(=O)C(=O)c4ccccc43)nn2)cc1` [10a, N-(4-Acetylphenyl)-2–(4-((2,3-dioxoindolin-1-yl)methyl)-1H-1,2,3-triazol-1-yl)acetamide] registered an IC50 of 12.3 ± 0.73 µM.
